Experimental data taken from patent US6770287B1, “Biocidal cellulosic material” (The Regents of the University of California, priority 2000, dated 2004).

Tests used:
S. aureus [1] = experiment: AATCC Test Method 100 quantitative antibacterial test (bacterial reduction); format: cell-based, Staphylococcu aureus (ATCC 5368); conditions: Cl 0.25%, Anti-1 4%, contact time 60 min
Description: (§1) AATCC Test Method 100 was adopted in this study. According to this test method, four pieces of staked circular fabric swatches 4.8±0.1 (about one grams) were inoculated with 1.0±0.1 milliliter of inoculum in a 250 milliliter jar. The inoculum was a nutrient broth culture containing over 1.0×10^6 clone forming units (CFU) of organisms. After the swatches were inoculated, they were neutralized by 100 milliliter of a 0.02% sodium thiosulfate solution in the jar. The contact time was the time between inoculation and neutralization. The jar was vigorously shaken and the neutralized solution was diluted in serial. The dilutions, usually 100, 101, and 102, were plated on nutrient agar and incubated for 18-24 hours at 37° C. The number of bacteria recovered from the inoculated finished fabrics was counted and compared with that from untreated fabrics. Six log reduction means the total inactivation of bacteria, and one log reduction means that finished fabrics reduced bacteria counts from 106 CFU to 105 CFU.
(§2) Finished fabrics prepared from solutions containing 1%-6% of monomethylol-5,5-dimethylhydantoin following the protocol set forth in Example 1 with pickup rates below 1% have been tested.
(§3) Fabrics finished in accordance with the protocol set forth in Example II with Anti-2, i.e., 1,3-dimethylol-5,5-dimethylhydantoin, were also tested with AATCC test method 100, which was briefly described in Example IV. In the tests, a diluted CLOROX® solution containing 0.01 % active chlorine was used to chlorinate the finished fabrics.

E. coli [2] = experiment: AATCC Test Method 147 qualitative antibacterial test (inhibition zone); format: cell-based, Escherichia coli (ATCC 2666)
E. coli [3] = experiment: AATCC Test Method 100 quantitative antibacterial test (bacterial reduction); format: cell-based, Escherichia coli (ATCC 2666); conditions: Anti-1 4%, contact time 60 min
Description: as §1, §2, §3

S. aureus [4] = experiment: AATCC Test Method 147 qualitative antibacterial test (inhibition zone); format: cell-based, Staphylococcu aureus (ATCC 5368)
S. aureus [5] = experiment: as above; format: cell-based, Staphylococcu aureus (ATCC 5368); remark: listed apart in the source
Description: Fabric samples of #405 (pure cotton, Testfabrics, Inc., Middlesex, N.J.) and # 7402 (cotton/polyester 35/65, Testfabrics, Inc., Middlesex, N.J.) were finished in a manner similar to that set forth in Example I. The concentration of the finishing agent used was from about 5 to 15% in the finishing of the cotton fabrics and from about 5 to 20% in the finishing of the cotton/polyester (35/65) blend fabric because of the lower concentration of cellulose in the blend. The final biocidal property was imparted onto the finished fabrics by washing them with a diluted CLOROX® solution containing 0.25% chlorine after each washing circle. Qualitative antibacterial tests were conducted according to AATCC Test Method 147.
In the AATCC Test Method 147, two pieces of chlorinated fabrics with the size of 25 mm×50 mm were placed on a nutrient agar plate which had been inoculated by five streaks of a diluted bacteria solution using a 4 mm inoculating loop. The diluted bacteria solution was prepared by transferring 1.0 milliliter of 24 hour broth culture into 9.0 milliliter of sterile distilled water. The agar plate was incubated at 37° C. for 18-24 hours. The minimum width of inhibition zone along a streak on either side of the test specimen are measured. Table I sets forth the qualitative biocidal evaluations of the finished fabrics with different concentration of the agent Anti-1.

[6] = Cotton cloth #400, add-on 1.43%
[7] = Dacron/Cotton 65/35 #7402, add-on 1.19%
[8] = Terry cloth 100% Cotton, add-on 1.40%
[9] = #405 cotton, Anti-1 5%, add-on 1.2%
[10] = #405 cotton, Anti-1 10%, add-on 2.3%
[11] = #405 cotton, Anti-1 15%, add-on 3.1%
[12] = #7402 cotton/polyester 35/65, Anti-1 5%, add-on 0.8%
[13] = #7402 cotton/polyester 35/65, Anti-1 10%, add-on 1.4%
[14] = #7402 cotton/polyester 35/65, Anti-1 15%, add-on 1.6%
[15] = #7402 cotton/polyester 35/65, Anti-1 20%, add-on 2.0%

## CC1(C)NC(=O)N(CO)C1=O [Anti-1, monomethylol-5,5-dimethylhydantoin]
S. aureus [1]; #400
  Bacterial Reduction Rates After fifteen washings S. aur.: 0 log
  Bacterial Reduction Rates After five Washings S. aur.: 6 log
  Bacterial Reduction Rates After ten Washings S. aur.: 0 log
  Bacterial Reduction Rates After twenty washings S. aur.: 0 log
S. aureus [1]; #7409
  Bacterial Reduction Rates After fifteen washings S. aur.: 6 log
  Bacterial Reduction Rates After five Washings S. aur.: 6 log
  Bacterial Reduction Rates After ten Washings S. aur.: 6 log
  Bacterial Reduction Rates After twenty washings S. aur.: 1 log
E. coli [2]; [6]
  Biocidal results against E. coli after being activated: >2.0 mm
E. coli [2]; [7]
  Biocidal results against E. coli after being activated: >10 mm
E. coli [2]; Rayon, add-on 1.21%
  Biocidal results against E. coli after being activated: >1.0 mm
E. coli [2]; [8]
  Biocidal results against E. coli after being activated: >10 mm
E. coli [3]; Cl 0.01%, #400
  Bacterial Reduction Rates After fifteen washings E. coli: 6 log
  Bacterial Reduction Rates After five Washings E. coli: 6 log
  Bacterial Reduction Rates After ten Washings E. coli: 6 log
  Bacterial Reduction Rates After twenty washings E. coli: 6 log
E. coli [3]; Cl 0.01%, #7409
  Bacterial Reduction Rates After fifteen washings E. coli: 6 log
  Bacterial Reduction Rates After five Washings E. coli: 6 log
  Bacterial Reduction Rates After ten Washings E. coli: 6 log
  Bacterial Reduction Rates After twenty washings E. coli: 6 log
E. coli [3]; Cl 0.1%, #400
  Bacterial Reduction Rates After fifteen washings E. coli: 6 log
  Bacterial Reduction Rates After five Washings E. coli: 6 log
  Bacterial Reduction Rates After ten Washings E. coli: 6 log
  Bacterial Reduction Rates After twenty washings E. coli: 1 log
E. coli [3]; Cl 0.1%, #7409
  Bacterial Reduction Rates After fifteen washings E. coli: 6 log
  Bacterial Reduction Rates After five Washings E. coli: 6 log
  Bacterial Reduction Rates After ten Washings E. coli: 6 log
  Bacterial Reduction Rates After twenty washings E. coli: 6 log
E. coli [3]; Cl 0.25%, #400
  Bacterial Reduction Rates After fifteen washings E. coli: 1 log
  Bacterial Reduction Rates After five Washings E. coli: 6 log
  Bacterial Reduction Rates After ten Washings E. coli: 2 log
  Bacterial Reduction Rates After twenty washings E. coli: 1 log
E. coli [3]; Cl 0.25%, #7409
  Bacterial Reduction Rates After fifteen washings E. coli: 6 log
  Bacterial Reduction Rates After five Washings E. coli: 6 log
  Bacterial Reduction Rates After ten Washings E. coli: 6 log
  Bacterial Reduction Rates After twenty washings E. coli: 1 log
S. aureus [4]; [7]
  Biocidal results against S. aureus after being activated: >4.0 mm
S. aureus [4]; Rayon, add-on 1.21%
  Biocidal results against S. aureus after being activated: >1.0 mm
S. aureus [4]; [8]
  Biocidal results against S. aureus after being activated: kill all
S. aureus [5]; [9]
  Biocidal Results After 20 Times Washing S. aureus: >1 mm
  Biocidal Results After 50 Times Washing S. aureus: ˜1 mm
S. aureus [5]; [10]
  Biocidal Results After 20 Times Washing S. aureus: >3 mm
  Biocidal Results After 50 Times Washing S. aureus: >1 mm
S. aureus [5]; [11]
  Biocidal Results After 20 Times Washing S. aureus: kill all
  Biocidal Results After 50 Times Washing S. aureus: >4 mm
S. aureus [5]; [12]
  Biocidal Results After 20 Times Washing S. aureus: >1 mm
  Biocidal Results After 50 Times Washing S. aureus: ˜1 mm
S. aureus [5]; [13]
  Biocidal Results After 20 Times Washing S. aureus: >1 mm
  Biocidal Results After 50 Times Washing S. aureus: ˜1 mm
S. aureus [5]; [14]
  Biocidal Results After 20 Times Washing S. aureus: kill all
  Biocidal Results After 50 Times Washing S. aureus: >1 mm
S. aureus [5]; [15]
  Biocidal Results After 20 Times Washing S. aureus: >4 mm
  Biocidal Results After 50 Times Washing S. aureus: >1 mm
S. aureus [5]; [6]
  Biocidal results against S. aureus after being activated: >1.0 mm
